Literature values, collected in patent US20060034774A1, “Galactopyrannosyltriaminetetracarboxylate as ligands for bioactivated paramagnetic metal complexes” (Kaohsiung Medical University, priority 2004, published 2006).
Like-named read-outs stand apart in the source and are kept apart here.

Target: β-galactosidase (β-gal) (Escherichia coli, UniProt P00722)
Sequence (P00722 2-1024): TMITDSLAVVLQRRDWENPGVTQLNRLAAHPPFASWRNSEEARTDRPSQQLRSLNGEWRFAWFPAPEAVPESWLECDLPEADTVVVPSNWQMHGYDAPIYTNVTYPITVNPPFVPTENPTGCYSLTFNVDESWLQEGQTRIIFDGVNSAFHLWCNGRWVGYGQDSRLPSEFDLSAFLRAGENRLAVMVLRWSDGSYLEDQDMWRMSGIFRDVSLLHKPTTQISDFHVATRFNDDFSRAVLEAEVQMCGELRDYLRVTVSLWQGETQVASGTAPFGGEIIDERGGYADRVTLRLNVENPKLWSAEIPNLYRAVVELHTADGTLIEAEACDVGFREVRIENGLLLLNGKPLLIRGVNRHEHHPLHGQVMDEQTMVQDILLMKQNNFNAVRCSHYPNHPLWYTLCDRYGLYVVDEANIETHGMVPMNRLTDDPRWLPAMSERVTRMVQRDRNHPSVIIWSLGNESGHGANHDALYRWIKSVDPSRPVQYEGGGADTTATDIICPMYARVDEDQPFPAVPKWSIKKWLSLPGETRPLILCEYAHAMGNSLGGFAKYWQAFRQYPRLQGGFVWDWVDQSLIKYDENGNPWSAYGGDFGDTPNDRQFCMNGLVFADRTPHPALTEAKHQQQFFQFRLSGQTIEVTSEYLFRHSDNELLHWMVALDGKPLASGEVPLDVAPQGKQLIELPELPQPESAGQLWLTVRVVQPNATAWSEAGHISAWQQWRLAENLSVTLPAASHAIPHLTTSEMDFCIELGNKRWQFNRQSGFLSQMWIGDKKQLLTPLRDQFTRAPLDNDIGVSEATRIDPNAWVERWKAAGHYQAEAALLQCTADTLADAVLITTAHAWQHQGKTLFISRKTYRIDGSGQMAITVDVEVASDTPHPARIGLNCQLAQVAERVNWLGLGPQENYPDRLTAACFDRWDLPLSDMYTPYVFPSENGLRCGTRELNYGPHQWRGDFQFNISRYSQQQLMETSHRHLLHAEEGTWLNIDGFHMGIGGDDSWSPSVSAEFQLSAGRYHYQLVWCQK

For O=C(O)CN1CCN(CCO[C@@H]2O[C@H](CO)[C@H](O)[C@H](O)[C@H]2O)CCN(CC(=O)O)CCN(CC(=O)O)CC1 [Egad, 4,7,10-tri(aceticacid)-1-(2-β-galactopyranosylethoxy)-1,4,7,10-tetraagacyclo dodecane], the “number of inner space water molecules” value (after hydrolysis by β-galactosidase (β-gal)) is listed as 1.2 and the “number of inner space water molecules” value (before β-galactosidase) is listed as 0.7.
